What was measured:
[1] = Kinetic solubility of PP-001 salts in FaSSIF (HPLC); assay type: physicochemical; conditions: for Appearance after stirring for 24 hours / Final pH / Solubility at different time points, 0.5 h / Solubility at different time points, 1 h / Solubility at different time points, 2 h / Solubility at different time points, 24 h / Solubility at different time points, Initial: 4 mL FaSSIF, 25° C., target 2 mg/mL
Experimental: Approximately 8 mg (calculated as freebase) of each salt was weighed out into each glass vial and then 4 ml of FaSSIF was added (target concentration was 2 mg/mL). The sample was kept stirring on a magnetic stirrer at a speed of I 00 RPM under 25° C. Then at the time points of initial, 0.5 hr, 1 hr, 2 hrs and 24 hrs, 0.5 mL of sample solution was transferred into 1.5 mL centrifugation tube and centrifuged at 12,000 RPM for 10 min. The supernatant was diluted by 50% ACN suitable and analyzed by HPLC.
An HPLC method of testing solubility was performed as follows in Table A: […]

in vivo [2] = conditions: dog; for AUC0-∞ / AUCExtr / AUCinf/D / AUClast / Cmax / F, bioavailability (BA) in dogs / MRT0-∞ / T1/2 / Tmax: 4 mg/kg
Experimental: (§1) Suspensions were stirred continuously prior to dose.
A total of 6 male beagle dogs were used (n=3). 6 male dogs assigned to the study were divided into 2 periods with 6 dogs per period and two dosing cycles separated by a 7-day washout period. The diet was provided ad libitum throughout the in-life portion of the study, except for the fasting prior to dosing through 4 hours post dose. Drinking water was available daily ad libitum to all animals. Formulated PP-001 salts were administered to male beagle dogs by oral administration at 4 mg/kg with dosed volume at 2 mL/kg.
(§2) Plasma samples were collected via the jugular vein cannulation into EDTA-K3 tubes at 0.25, 0.5, 1, 2, 4, 8, and 24 hours post-dose administration. For analytical batch of single oral administration, plasma concentrations of salts of PP-001 were determined using LC-MS/MS with a lower limit of quantitation of 10 ng/mL.
(§3) The pharmacokinetic parameters of PP-001 salts were determined by non-compartmental analysis using WinNonlin Version 8.0 (Pharsight, Mountain View, CA). The area under the curve from the time of dosing to the last measurable concentration, AUC0-t, was calculated by the linear trapezoidal rule. The area under the concentration-time curve extrapolated to infinity, AUCinf, was calculated using a regression of the natural logarithm of the concentration values versus sampling time of the terminal slope (Lambda Z, k). This value is also used to calculate half-life (T1/2) as follows:
(§4) The bioavailability was calculated as follows:
(§5) [formula] • wherein PO is an oral administration and IV is an intravenous injection.

in vivo [3] = conditions: rat
Experimental: as §1
A total of 27 male SD rats were used (n=3). 27 male SD rats assigned to the study were divided into 9 groups and a single type of formulated PP-001 salt was orally administered to each group of rats at dose level of 4 mg/kg (2 mL/kg dose volume). The diet was provided ad libitum throughout the in-life portion of the study, except for the fasting prior to dosing through 4 hours post dose. Drinking water was available daily ad libitum to all animals.
as §2, with “1” for “10”
as §3, §4, §5

[4] = Thermodynamic (equilibrium) solubility of PP-001 salts in FaSSIF; assay type: physicochemical; conditions: for Appearance after stirring for 24 hours / Thermodynamic solubility / Final pH: 3 mL FaSSIF, 37° C.; for Appearance after stirring for 24 hours: saturated; for Thermodynamic solubility: saturated (target 10 mg/mL), time point 2 hrs, pH 6.4 to 6.5; for Final pH: pH tested after 24 hours
Experimental: As the solid was completely dissolved, add more sample to keep it saturated. […] Then at the time point 2 hrs, 0.5 mL of sample solution was transferred into 1.5 mL centrifugation tube and centrifuged at 12,000 RPM for 10 min. The supernatant was diluted by 50% ACN suitable and analyzed by HPLC. The pH was tested after 24 hours.

[5] = FaSSIF, comparison from Table 6

Row | Compound | Appearance after stirring for 24 hours [1] | Solubility at different time points, 0.5 h [1] [µg/mL] | Solubility at different time points, 1 h [1] [µg/mL] | Solubility at different time points, 2 h [1] [µg/mL] | Solubility at different time points, Initial [1] [µg/mL] | Increase in oral BA vs free acid in dogs (in vivo [2]) | AUC0-∞ (in vivo [2]; po) [ng·h/mL] | Increase in oral BA vs free acid in rats (in vivo [3]; in vivo, po) | AUC0-∞ (in vivo [3]; in vivo, po, 4 mg/kg) [ng·h/mL] | AUCExtr (in vivo [3]; in vivo, po, 4 mg/kg) [%] | AUCinf/D (in vivo [3]; in vivo, po, 4 mg/kg) [kg·ng·h/mL/mg] | AUClast (in vivo [3]; in vivo, po, 4 mg/kg) [ng·h/mL] | Cmax (in vivo [3]; in vivo, po, 4 mg/kg) [ng/mL] | F, bioavailability (BA) in rats (in vivo [3]; in vivo, po, 4 mg/kg) [%] | MRT0-∞ (in vivo [3]; in vivo, po, 4 mg/kg) [h] | Tmax (in vivo [3]; in vivo, po, 4 mg/kg) [h] | T1/2 (in vivo [3]; in vivo, po, 4 mg/kg, pH 6.8) [h] | Solubility at different time points, 24 h [1] [µg/mL] | Appearance after stirring for 24 hours [4] | Thermodynamic solubility [4] [µg/mL] | further results
1 | [Ca] [Calcium] | suspension | 750 | 740 | 710 | 340 | 3.0 | 133409 | 2.0 | 27157 | 1.03 | 6789 | 26827 | 3280 | 15.6 | 5.55 | 4.00 | 3.40 | – | – | – | Final pH [1]: 6.51; Solubility at different time points, 24 h ([1]; listed as Ca): 700 µg/mL; Solubility at different time points, 24 h ([1]; listed as Ca cation): 700 µg/mL; Solubility compared to PP-001 free acid [1, 5]: reduced solubility compared to PP-001 free acid; Increase in bioavailability in dogs (in vivo [2]; po): > 3 fold; AUCExtr (in vivo [2]; po): 1.16%; AUCinf/D (in vivo [2]; po): 33352 kg·ng·h/mL/mg; AUClast (in vivo [2]; po): 131819 ng·h/mL; Cmax (in vivo [2]; po): 22467 ng/mL; F, bioavailability (BA) in dogs (in vivo [2]; po): 68.1%; MRT0-∞ (in vivo [2]; po): 4.38 h; T1/2 (in vivo [2]; po): 3.76 h; Tmax (in vivo [2]; po): 1.67 h
2 | NCCCC[C@H](N)C(=O)O [Lysine] | – | 2040 | 2060 | 2020 | 1370 | – | – | – | – | – | – | – | – | – | – | – | – | 2090 | Suspension | 4650 | AUC0-∞ (in vivo [3]; PO 4 mg/kg, mean n=3): 18430 ng·h/mL; AUCExtr (in vivo [3]; PO 4 mg/kg, mean n=3): 0.388%; AUCinf/D (in vivo [3]; PO 4 mg/kg, mean n=3): 4607 kg·ng·h/mL/mg; AUClast (in vivo [3]; PO 4 mg/kg, mean n=3): 18361 ng·h/mL; Cmax (in vivo [3]; PO 4 mg/kg, mean n=3): 2663 ng/mL; F, bioavailability (BA) in rats (in vivo [3]; PO 4 mg/kg, mean n=3): 10.6%; MRT0-∞ (in vivo [3]; PO 4 mg/kg, mean n=3): 4.97 h; Tmax (in vivo [3]; PO 4 mg/kg, mean n=3): 4.00 h; T1/2 (in vivo [3]; PO 4 mg/kg, suspension in pH 6.8 phosphate buffer, mean n=3): 2.85 h; Increase in oral BA vs free acid in rats (in vivo [3]; oral, ratio to PP-001 free acid): 1.4
3 | [Mg] [Magnesium] | suspension | 1520 | 1510 | 1440 | 330 | – | – | 1.7 | 23029 | 0.510 | 5757 | 22909 | 3163 | 13.2 | 4.87 | 3.33 | 3.01 | – | – | – | Solubility at different time points, 24 h ([1]; listed as Mg): 1010 µg/mL; Solubility at different time points, 24 h ([1]; listed as Mg cation): 1010 µg/mL
4 | CNC[C@H](O)[C@@H](O)[C@H](O)[C@H](O)CO [Meglumine] | – | 2010 | 1980 | 2000 | 1320 | – | – | 1.3 | 17083 | 0.488 | 4271 | 16995 | 2217 | – | 4.83 | 3.00 | 3.02 | 1960 | – | 5690 | –
5 | [K+] [Potassium] | clear solution | 1700 | 2180 | 2190 | 490 | 4.0 | 180263 | 0.7 | 10112 | 0.525 | 2528 | 10049 | 1144 | 5.8 | 5.31 | 4.00 | 2.96 | 2260 | Suspension | 2340 | Final pH [1]: 6.50; Increased bioavailability in dogs vs PP-001 free acid (in vivo [2]; po): > 400 % increase; AUCExtr (in vivo [2]; po): 1.59%; AUCinf/D (in vivo [2]; po): 45066 kg·ng·h/mL/mg; AUClast (in vivo [2]; po): 177228 ng·h/mL; Cmax (in vivo [2]; po): 33967 ng/mL; MRT0-∞ (in vivo [2]; po): 4.34 h; T1/2 (in vivo [2]; po): 4.15 h; Tmax (in vivo [2]; po): 1.17 h; Increased solubility vs PP-001 free acid [4, 5]: > 100 % increase
6 | Benzathine | – | – | – | – | – | – | – | 0.7 | 9593 | 0.298 | 2398 | 9559 | 1495 | 5.5 | 4.81 | 3.33 | 2.70 | – | Suspension | 30 | Final pH [4]: 6.43
7 | Sodium | clear solution | 1600 | 1730 | 1790 | 410 | 2.6 | 116660 | 2.4 | 32873 | 0.743 | 8218 | 32626 | 6147 | 18.8 | 4.76 | 2.33 | 3.34 | 2010 | Suspension | 1850 | AUCExtr (in vivo [2]; po): 2.16%; AUCinf/D (in vivo [2]; po): 29165 kg·ng·h/mL/mg; AUClast (in vivo [2]; po): 114152 ng·h/mL; Cmax (in vivo [2]; po): 16867 ng/mL; F, bioavailability (BA) in dogs (in vivo [2]; po): 59.6%; MRT0-∞ (in vivo [2]; po): 5.28 h; T1/2 (in vivo [2]; po): 4.24 h; Tmax (in vivo [2]; po): 3.00 h; Final pH [4]: 6.49
8 | Zinc | – | – | – | – | – | – | – | 1.3 | 17122 | 0.471 | 4281 | 17033 | 2490 | 9.82 | 5.33 | 4.00 | 2.89 | – | – | – | –

From patent publication US20260209200A1, “SALTS OF A DIHYDROOROTATE DEHYDROGENASE (DHOD) INHIBITOR” (priority 2022, published 2026)
